Reference: patent publication US20260250320A1, “LIPIDATED PEPTIDE INHIBITORS OF INTERLEUKIN-23 RECEPTOR” (Janssen Pharmaceutica NV, priority 2023, published 2026)
*1 amine or outer side, *2 acyl side, *3 side chain or, on linkers, in order; H or OH if unused. Where a SMILES comes first, the peptide text is derived from it. Bridges are numbered along the chain shown (N, C = ends). Side-chain parts run from the residue outwards. [ ]: non-standard residue; d: D form. The star is where a group is joined. X8 = CC(=O)[C@H](CCCCNC(=O)CC[C@H](NC(=O)CCCCCCCCCCCCCCCCC(=O)O)C(=O)O)N(C)*; Me3N+CH2CH2(OCH2CH2)4CO = C[N+](C)(C)CCOCCOCCOCCOCCC(=O)*; Me3N+(CH2)2O(CH2)2O(CH2)2CO = C[N+](C)(C)CCOCCOCCC(=O)*; PEG12 = NCCOCCOCCOCCOCCOCCOCCOCCOCCOCCOCCOCCOCCC(=O)O; Trp(7-Me) = Cc1cccc2c(C[C@H](N)C(=O)O)c[nH]c12; C20 diacid = O=C(O)CCCCCCCCCCCCCCCCCCC(=O)*; C18 diacid = O=C(O)CCCCCCCCCCCCCCCCC(=O)*; X6 = CN(CC[C@H](N[*:1])C(=O)[*:2])[*:3]; γGlu = O=C(O)[C@H](CCC(=O)[*:2])N[*:1]; 2Nal = N[C@@H](Cc1ccc2ccccc2c1)C(=O)O; AEF = NCCOc1ccc(C[C@H](N)C(=O)O)cc1; X7 = C[N+](C)(C)CCOCCOCCOCCOC(=O)*; 3Pal = N[C@@H](Cc1cccnc1)C(=O)O; Lys(Me) = CNCCCC[C@H](N)C(=O)O; Pen = CC(C)(S)[C@H](N)C(=O)O; Thp = NC1(C(=O)O)CCOCC1; X1 = C[N+](C)(C)CCCCC*; AEEA = NCCOCCOCC(=O)O; Sar = CNCC(=O)O

How the values were obtained:
[1] = system: IL-23-stimulated phosphorylated STAT3 in peripheral blood mononuclear cells (PBMCs); assay: PBMC pSTAT3 Assay; type: cell-based; settings: PBMCs from healthy donors; 30 min preincubation with peptide; IL-23 5 ng/mL for 30 min; phospho-STAT3 by MSD
How it was run: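 Phospho-STAT3 quantified by Meso Scale assay in lysates of PBMCs exposed to IL-23 (5 ng/mL, 30 min, 37 °C) after 30 min peptide pretreatment. Cells were cryopreserved donor PBMCs activated 4 days with anti-CD3 plus IL-1β (100 ng/mL) and starved ~4 h; IC50 reported.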

[2] = molecular target: T1, IL-23R (Homo sapiens, UniProt Q5VWK5); assay: IL23R Reporter Assay; type: cell-based; settings: HEK293 cells containing IL-23R, IL-12Rβ1 and STAT-inducible firefly luciferase reporter; 10 ng/mL IL-23 (EC90); 5 h
T1 construct: HEK293 cells containing IL-23R, IL-12Rβ1 and a firefly luciferase reporter gene driven by a STAT-inducible promoter (Promega); host or cells: HEK293
T1 sequence (Q5VWK5 24-629): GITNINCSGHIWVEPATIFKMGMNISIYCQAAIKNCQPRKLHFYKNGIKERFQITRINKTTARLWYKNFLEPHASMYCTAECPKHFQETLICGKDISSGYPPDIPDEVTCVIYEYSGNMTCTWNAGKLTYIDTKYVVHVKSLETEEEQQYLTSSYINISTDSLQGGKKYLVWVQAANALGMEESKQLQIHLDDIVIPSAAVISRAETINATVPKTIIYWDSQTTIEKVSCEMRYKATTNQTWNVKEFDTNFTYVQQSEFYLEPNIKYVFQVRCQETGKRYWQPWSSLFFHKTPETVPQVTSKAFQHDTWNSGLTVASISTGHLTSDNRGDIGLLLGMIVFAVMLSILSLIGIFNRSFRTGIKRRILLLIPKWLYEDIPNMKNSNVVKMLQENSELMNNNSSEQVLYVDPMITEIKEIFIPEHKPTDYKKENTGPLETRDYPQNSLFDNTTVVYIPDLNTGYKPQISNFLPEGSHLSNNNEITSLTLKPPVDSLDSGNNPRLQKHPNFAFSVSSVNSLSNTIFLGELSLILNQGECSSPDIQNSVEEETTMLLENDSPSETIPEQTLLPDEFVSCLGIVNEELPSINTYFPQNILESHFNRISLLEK
How it was run: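 IC50 values were fitted with a 4-parameter Hill equation to luciferase signal, scaled between IL-23-only wells (0% inhibition) and 30 μM reference inhibitor (100%). The readout was a STAT-inducible reporter in IL-23R/IL-12Rβ1 HEK293 cells, stimulated with added 10 ng/mL IL-23 (EC90) for 5 h at 37° C and developed with BioGlo.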

Row | SMILES | IC50 [1] [µM] | IC50 [2] [µM]
1 | CC(=O)[C@H](CCCCNC(=O)CC[C@H](NC(=O)CCCCCCCCCCCCCCCCC(=O)O)C(=O)O)N(C)C(=O)[C@H](Cc1cccnc1)NC(=O)[C@H](CC(N)=O)NC(=O)[C@H](CCC(=O)O)NC(=O)C1(NC(=O)[C@H](Cc2ccc3ccccc3c2)NC(=O)[C@H](Cc2ccc(OCCN)cc2)NC(=O)[C@H]2NC(=O)[C@H](CCN(C)C(=O)OCCOCCOCCOCC[N+](C)(C)C)NC(=O)[C@H](Cc3c[nH]c4c(C)cccc34)NC(=O)[C@H]([C@@H](C)O)NC(=O)[C@H](CC(=O)N(C)C)NC(=O)[C@@H](NC(=O)CCOCCOCCOCCOCC[N+](C)(C)C)C(C)(C)SSC2(C)C)CCOCC1 [compound 106, cPEG5aCO-Pen(3)-N(N(Me)2)-T-7MeW-Dab(NMecPEG5a)-Pen(3)-AEF-2Nal-THP-E-N-3Pya-NMeK(gEC18OH)-CONH2] ({Me3N+CH2CH2(OCH2CH2)4CO}-[Pen]D(NMe2)T[Trp(7-Me)][X6](X7)[Pen][AEF][2Nal][Thp]EN[3Pal]-X8; disulfide 1-6) | 0.0005 to 0.005 | 0.05 to 0.5
2 | CC(=O)NCCCC[C@@H]1NC(=O)[C@H](Cc2c[nH]c3c(C)cccc23)NC(=O)[C@H]([C@@H](C)O)NC(=O)[C@H](CCCCNC(=O)COCCOCCNC(=O)COCCOCCNC(=O)CC[C@H](NC(=O)CCCCCCCCCCCCCCCCC(=O)O)C(=O)O)NC(=O)[C@@H](NC(=O)[C@@H](CCCNC(=N)N)NC(=O)CCOCCOCC[N+](C)(C)C)C(C)(C)SSC(C)(C)[C@@H](C(=O)N[C@@H](Cc2ccc(OCCN)cc2)C(=O)N[C@@H](Cc2ccc3ccccc3c2)C(=O)NC2(C(=O)N[C@@H](CCC(=O)O)C(=O)N[C@@H](CC(N)=O)C(=O)N[C@@H](Cc3cccnc3)C(=O)N(C)CC(N)=O)CCOCC2)NC1=O [compound 55, cPEG3aCO-r-Pen(3)-K(PEG2PEG2gEC18OH)-T-7MeW-K(Ac)-Pen(3)-AEF-2Nal-THP-E-N-3Pya-Sar-CONH2] ({Me3N+(CH2)2O(CH2)2O(CH2)2CO}-[dR][Pen]K([AEEA-AEEA-γGlu-C18 diacid])T[Trp(7-Me)]K(Ac)[Pen][AEF][2Nal][Thp]EN[3Pal][Sar]-NH2; disulfide 2-7) | < 0.0005 | 0.05 to 0.5
3 | CC(=O)NCCCC[C@@H]1NC(=O)[C@H](Cc2c[nH]c3c(C)cccc23)NC(=O)[C@H]([C@@H](C)O)NC(=O)[C@H](CC(N)=O)NC(=O)[C@@H](NC(=O)[C@@H](CCCCNC(=O)COCCOCCNC(=O)COCCOCCNC(=O)CC[C@H](NC(=O)CCCCCCCCCCCCCCCCC(=O)O)C(=O)O)NC(C)=O)C(C)(C)SSC(C)(C)[C@@H](C(=O)N[C@@H](Cc2ccc(OCCN)cc2)C(=O)N[C@@H](Cc2ccc3ccccc3c2)C(=O)NC2(C(=O)N[C@@H](CCC(=O)O)C(=O)N[C@@H](CC(N)=O)C(=O)N[C@@H](Cc3cccnc3)C(=O)N(C)CC(N)=O)CCOCC2)NC1=O [compound 58, MeCO-k(PEG2PEG2gEC18OH)-Pen(3)-N-T-7MeW-K(Ac)-Pen(3)-AEF-2Nal-THP-E-N-3Pya-Sar-CONH2] (Ac-[dK]([AEEA-AEEA-γGlu-C18 diacid])[Pen]NT[Trp(7-Me)]K(Ac)[Pen][AEF][2Nal][Thp]EN[3Pal][Sar]-NH2; disulfide 2-7) | < 0.0005 | 0.05 to 0.5
4 | CC(=O)NCCCC[C@@H]1NC(=O)[C@H](Cc2c[nH]c3c(C)cccc23)NC(=O)[C@H]([C@@H](C)O)NC(=O)[C@H](CCCCNC(=O)CCOCCOCCOCCOCCOCCOCCOCCOCCOCCOCCOCCOCCNC(=O)CC[C@H](NC(=O)CCCCCCCCCCCCCCCCC(=O)O)C(=O)O)NC(=O)[C@@H](NC(=O)[C@@H](CCCNC(=N)N)NC(C)=O)C(C)(C)SSC(C)(C)[C@@H](C(=O)N[C@@H](Cc2ccc(OCCN)cc2)C(=O)N[C@@H](Cc2ccc3ccccc3c2)C(=O)NC2(C(=O)N[C@@H](CCC(=O)O)C(=O)N[C@@H](CC(N)=O)C(=O)N[C@@H](Cc3cccnc3)C(=O)N(C)CC(N)=O)CCOCC2)NC1=O [compound 99, MeCO-r-Pen(3)-K(PEG12gEC20OH)-T-7MeW-K(Ac)-Pen(3)-AEF-2Nal-THP-E-N-3Pya-Sar-CONH2] (Ac-[dR][Pen]K([PEG12-γGlu-C18 diacid])T[Trp(7-Me)]K(Ac)[Pen][AEF][2Nal][Thp]EN[3Pal][Sar]-NH2; disulfide 2-7) | < 0.0005 | < 0.05
5 | CC(=O)N(C)CCCC[C@@H]1NC(=O)[C@H](Cc2c[nH]c3ccccc23)NC(=O)[C@H]([C@@H](C)O)NC(=O)[C@H](CCCCNC(=O)COCCOCCNC(=O)COCCOCCNC(=O)CC[C@H](NC(=O)CCCCCCCCCCCCCCCCC(=O)O)C(=O)O)NC(=O)[C@@H](NC(=O)CCOCCOCC[N+](C)(C)C)C(C)(C)SSC(C)(C)[C@@H](C(=O)N[C@@H](Cc2ccc(OCCCCC[N+](C)(C)C)cc2)C(=O)N[C@@H](Cc2ccc3ccccc3c2)C(=O)NC2(C(=O)N[C@@H](CCCCN(C)C(C)=O)C(=O)N[C@@H](CC(N)=O)C(=O)N[C@@H](Cc3cccnc3)C(=O)N(C)CC(=O)N(C)C)CCOCC2)NC1=O [compound 122, cPEG3aCO-Pen(3)-K(PEG2PEG2gEC18OH)-T-7MeW-K(NMeAc)-Pen(3)-TMAPF-2Nal-THF-K(NMeAc)-N-3Pya-Sar-CON(Me)2] ({Me3N+(CH2)2O(CH2)2O(CH2)2CO}-[Pen]K([AEEA-AEEA-γGlu-C18 diacid])TW[Lys(Me)](Ac)[Pen]Y(X1)[2Nal][Thp][Lys(Me)](Ac)N[3Pal][Sar]-NMe2; disulfide 1-6) | < 0.0005 | 0.05 to 0.5
6 | CC(=O)NCCCC[C@@H]1NC(=O)[C@H](Cc2c[nH]c3c(C)cccc23)NC(=O)[C@H]([C@@H](C)O)NC(=O)[C@H](CC(N)=O)NC(=O)[C@@H](NC(=O)[C@@H](CCCNC(=N)N)NC(C)=O)C(C)(C)SSC(C)(C)[C@@H](C(=O)N[C@@H](Cc2ccc(OCCN)cc2)C(=O)N[C@@H](Cc2ccc3ccccc3c2)C(=O)NC2(C(=O)N[C@@H](CCC(=O)O)C(=O)N[C@@H](CC(N)=O)C(=O)N[C@@H](Cc3cccnc3)C(=O)N(C)CC(=O)N[C@@H](CCCCNC(=O)CCOCCOCCOCCOCCOCCOCCOCCOCCOCCOCCOCCOCCNC(=O)CC[C@H](NC(=O)CCCCCCCCCCCCCCCCCCC(=O)O)C(=O)O)C(N)=O)CCOCC2)NC1=O [compound 134, MeCO-r-Pen(3)-N-T-7MeW-K(Ac)-Pen(3)-AEF-2Nal-THP-E-N-3Pya-Sar-K(PEG12gEC20OH)-CONH2] (Ac-[dR][Pen]NT[Trp(7-Me)]K(Ac)[Pen][AEF][2Nal][Thp]EN[3Pal][Sar]K([PEG12-γGlu-C20 diacid])-NH2; disulfide 2-7) | < 0.0005 | < 0.05
7 | CC(=O)N(C)CCCC[C@H](CC(=O)C1(NC(=O)[C@H](Cc2ccc3ccccc3c2)NC(=O)[C@H](Cc2ccc(OCCNC(=O)C[N+](C)(C)CCNC(=O)CCOCCOCCOCCOCCOCCOCCOCCOCCOCCOCCOCCOCCNC(=O)CC[C@H](NC(=O)CCCCCCCCCCCCCCCCCCC(=O)O)C(=O)O)cc2)NC(=O)[C@H]2NC(=O)[C@H](CCCCN(C)C(C)=O)NC(=O)[C@H](Cc3c[nH]c4c(C)cccc34)NC(=O)[C@H]([C@@H](C)O)NC(=O)[C@H](CC(=O)N(C)C)NC(=O)[C@@H](NC(=O)CCOCCOCC[N+](C)(C)C)C(C)(C)SSC2(C)C)CCCCC1)C(=O)C[C@@H](CC(N)=O)C(=O)C[C@@H](Cc1cccnc1)C(=O)N(C)CC(=O)N(C)C [compound 139, cPEG3aCO-Pen(3)-N(N(Me)2)-T-7MeW-K(NMeAc)-Pen(3)-AEF(SP6PEG12gEC20OH)-2Nal-THP-K(NMeAc)-N-3Pya-Sar-CON(Me)2] | < 0.0005 | < 0.05
